# No end group written: not given here.
# B1: β-lipotropin (peptide, UniProt P01192 177-267, looked up, listed as Lipotropin beta)
# Lipotropin beta: ELAGAPPEPARDPEAPAEGAAARAELEYGLVAEAEAAEKKDEGPYKMEHFRWGSPPKDKRYGGFMTSEKSQTPLVTLFKNAIVKNAHKKGQ
# notes: product of pro-opiomelanocortin processing
# Tests used:
# MC3 receptor [1] = molecular target: T1, MC3 receptor (Homo sapiens, UniProt P41968); assay: [3H] inositol phosphate (IP) production in Hepa cells transfected with the MC3 receptor
# Source text: Receptor Gene Expression. The coding region of the MC3 receptor gene was subcloned into the eukaryotic expression vector CMVneo using a polymerase chain reaction (PCR) strategy as previously described. […] The insert was subsequently checked by dideoxynucleotide sequencing to insure that no errors were induced by the PCR. A rat hepatoma cell line (Hepa) which lacks endogenous melanocortin receptors was transfected with the CMVneo/MC3 receptor construct using the calcium phosphate co-precipitation method. […] Cells were selected for resistance to the neomycin analogue Geneticin (Life Sciences) and clones were subsequently chosen for high levels of receptor mRNA expression by Northern blot analysis.
# Inositol Phosphate (IP) Assays. Measurement of inositol phospholipid turnover in Hepa cells was performed according to a modification of previously published methods as follows. […] Cells grown to semi-confluence in multiwell plates were prelabeled with [2-^3 H] myo-inositol in DMEM for 24 hr, incubated in EBSS for 30 min, then incubated for another 15 min in EBSS with 10 mM LiCl. The final incubation was in media with experimental ligand added for up to three min after which ice cold 100% methanol was added and the cells were scraped and extracted with 2 ml chloroform, 10 μl HCl (13 N), and 200 μl of 100 mM EDTA in a 50 ml polypropylene tube. The mixture was then vortexed and centrifuged at 1,900 X g. The supernatant was removed and its pH was adjusted to 7.0 by adding 1 N NaOH. Waters Accel plus QMA SEP-PAK anion exchange cartridges (Waters Chromatography, Millipore Corporation, Milford, Mass.) were used to separate inositol phosphates under differing concentrations of formatelformic acid. The cartridges were pretreated by washing with 10 ml of a solution of 1 M ammonium formate in 0.1 M formic acid followed by 20 ml of distilled water. The samples were applied with a flow rate of approximately 10 ml/min using a 10 ml syringe. IPs were then eluted using 10 mM increments of ammonium formate in a stepwise fashion. Inositol monophosphate was eluted with 10 mM formic acid/100 mM ammonium formate/5 mM disodium tetraborate, inositol bisphosphate was eluted with 20 mM formic acid/200 mM ammonium formate/5 mM disodium tetraborate, and IP3 was eluted with 30 mM formic acid/300 mM ammonium formate/5 mM disodium tetraborate. […] Eluted radioactivity from the pooled fractions (total inositol phosphates) were measured by liquid-scintillation spectrometry (Beckman model LS7800 instrument).
# [2] = test system: chimeric receptor cH2R/MC3R-3i; assay: [3H] IP production in Hepa cells transfected with chimeric cH2R/hMC3R-3i; type: cell-based; details: pretreatment, chimeric cH2R/MC3R-3i
# Source text: Chimeric Receptor. […] The chimeric receptor (cH2R/MC3R-3i) was constructed by cassette mutation at the junction of the fifth and sixth transmembrane domains of cH2R. Six PCR primers were used to generate three DNA fragments which were subsequently ligated together. The three PCR-generated fragments consisted of 1) the 5' coding region of the cH2R receptor beginning just prior to the ATG codon and ending with the 3' end of the fifth transmembrane domain; 2) the portion of the MC3 receptor gene encoding its third intracytoplasmic loop; and 3) the 3' coding region of the cH2R beginning with that segment encoding the 5' end of the sixth transmembrane domain and ending slightly past the termination codon. The DNA fragments were cut with appropriate restriction enzymes at pre-engineered restriction sites designed so that the three fragments could be assembled together in only the correct alignment. Restriction sites were also designed to facilitate subcloning the chimeric receptor DNA into CMVneo and the sequencing vector M13. The nucleotide sequence of the CMVneo cH2R/MC3R-3i construct was confirmed prior to expression in Hepa cells.
# Inositol Phosphate (IP) Assays.
# [3] = test system: endogenous vasopressin receptors; assay: intracellular Ca++ concentration in Hepa cells, endogenous vasopressin receptors; type: cell-based, rat
# Experimental: Measurement of Intracellular Ca++ Concentration ([Ca++]i). For these experiments, Hepa cells were detached by incubation in Ca^++ -free EBSS with 2.0 mM EDTA, loaded with 1 μM fura-2/AM (Molecular Probes, Eugene, Oreg.) for 20 min at 37° C. in EBSS containing 0.1% BSA and 25 mM HEPES, washed by centrifugation at 50 X g, and resuspended and maintained in EBSS buffer at room temperature until the time of experimentation. [Ca^++ ]i measurements of cells suspended in a quartz cuvette were obtained using a dual-wavelength modular fluorometer (Spex-Fluorolog 2, Spex Industries, Edison, N.J.) according to previously described methods. DelValle, J. et al., Am. J. Physiol. 262:G420-426 (1992).
# MC4 receptor [4] = molecular target: T2, MC4 receptor (Homo sapiens, UniProt P32245); assay: cAMP generation in L-cells transfected with the MC4 receptor gene; type: cell-based
# T2 construct: expressed in transfected cells; host or cells: COS-1 (transient, lipofection); Hepa rat hepatoma; CMVneo vector
# T2 sequence (P32245 whole entry): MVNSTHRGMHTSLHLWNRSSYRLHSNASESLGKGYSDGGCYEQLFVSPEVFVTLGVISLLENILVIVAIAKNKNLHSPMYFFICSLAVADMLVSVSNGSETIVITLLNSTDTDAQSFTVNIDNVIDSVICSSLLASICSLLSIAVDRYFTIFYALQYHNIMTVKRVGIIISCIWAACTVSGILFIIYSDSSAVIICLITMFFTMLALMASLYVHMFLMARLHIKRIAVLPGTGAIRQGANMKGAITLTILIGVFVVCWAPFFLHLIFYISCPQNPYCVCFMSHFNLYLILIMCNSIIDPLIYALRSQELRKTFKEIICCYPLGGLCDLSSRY
# Source text: (§1) Receptor Expression. […] The sequences were subsequently checked by nucleotide sequencing to insure that no sequence errors were induced by PCR. L-cells (a mouse fibroblast-like cell line) were transfected using a calcium phosphate co-precipitation method as described in Chen, C. A. et al. Bio/Techniques 6:632-638 (1988). Permanently transfected L-cells were selected by resistance to the neomysin analogue G418, and receptor mRNA expression was checked by Northern blot analysis. […] COS-1 cells which were transiently transfected with the CMVneo/MC4R gene construct by lipofection as described in Feigner, P. L. et al., PNAS (USA) 84:7413-7417 using the Lipofectin Reagent (Life Technologies Inc.) were split into 12-well plates after 24 hr and assayed 36 hr post-transfection.
# (§2) cAMP Assays. For these assays a cAMP assay kit (TRK 432, Amersham Corp.) was employed. […] The cells were maintained in Dulbecco's modified Eagle's medium (GIBCO) containing 4.5 g/100 ml glucose, 10% fetal calf serum, 100 units/ml penicillin and streptomycin, 1 mM sodium pyruvate, and 1 mg/ml Geneticin. […] An aliquot (0.5 ml) of Earle's balanced salt solution was placed into each well along with 5 μl of 2×10^-2 M isobutylmethylxanthine. Varying concentrations of agonist were added, and the cells were incubated to 30 min at 37° C. Ice-cold 30% trichloracetic acid (500 μl/well) was added to stop the reaction and precipitate cellular protein. The cells were scraped and transferred to 16×150-mm glass tubes, then placed on ice for 30 min. The precipitate was then centrifuged for 10 min at 1,900×g, and the supernatant was ether extracted, lyophilized, and resuspended in 50 mM Tris, 2 mM EDTA (pH 7.5). cAMP content was then measured by a competitive binding assay according to the assay instructions.
# MC3 receptor [5] = molecular target: T1, MC3 receptor; assay: cAMP generation in L-cells transfected with the MC3 receptor; type: cell-based; set-up: these were utilized to obtain full-length genomic clones by screening a genomic library; expressed in transfected cells; CMVneo vector
# Source text: as §1, §2
# mMC5 receptor = molecular target: T3, mMC5 receptor (Mus musculus, UniProt P41149); assay: cAMP generation in L-cells transfected with the mMC5 receptor; type: cell-based
# T3 construct: expressed in transfected cells
# T3 sequence (P41149 whole entry): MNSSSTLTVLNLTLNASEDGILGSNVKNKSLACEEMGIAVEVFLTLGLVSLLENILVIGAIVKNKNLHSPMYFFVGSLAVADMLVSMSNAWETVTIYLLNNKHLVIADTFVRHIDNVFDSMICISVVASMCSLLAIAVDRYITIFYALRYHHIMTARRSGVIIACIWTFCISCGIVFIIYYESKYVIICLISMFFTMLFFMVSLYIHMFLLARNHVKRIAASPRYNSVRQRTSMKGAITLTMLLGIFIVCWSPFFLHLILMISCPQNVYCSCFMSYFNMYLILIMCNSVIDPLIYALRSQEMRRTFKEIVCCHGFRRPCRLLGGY
# Source text: as §1, §2
# MC1 receptor [6] = molecular target: T4, MC1 receptor (Homo sapiens, UniProt Q01726, R163Q/S90T); assay: cAMP generation in L-cells transfected with the MC1 receptor; type: cell-based
# T4 construct: expressed in transfected cells
# T4 sequence (Q01726 1-317 S90T/R163Q): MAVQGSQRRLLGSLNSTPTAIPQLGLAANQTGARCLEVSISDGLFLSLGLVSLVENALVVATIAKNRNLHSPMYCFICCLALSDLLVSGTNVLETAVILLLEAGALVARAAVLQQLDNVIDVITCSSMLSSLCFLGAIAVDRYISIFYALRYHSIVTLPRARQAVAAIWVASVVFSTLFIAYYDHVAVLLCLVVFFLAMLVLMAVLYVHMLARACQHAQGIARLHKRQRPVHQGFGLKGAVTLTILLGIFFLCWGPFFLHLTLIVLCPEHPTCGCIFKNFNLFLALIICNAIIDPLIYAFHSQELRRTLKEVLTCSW
# Source text: as §1, §2
# MC3 receptor [7] = molecular target: T1, MC3 receptor; assay: intracellular cAMP content in Hepa cells transfected with the MC3 receptor; type: cell-based; set-up: these were utilized to obtain full-length genomic clones by screening a genomic library; expressed in transfected cells; CMVneo vector
# Experimental: Receptor Expression. […] The sequences were subsequently checked by nucleotide sequencing to insure that no sequence errors were induced by PCR. […] A rat hepatoma cell line (Hepa) which lacks endogenous melanocortin receptors was also transfected with the CMVneo/MC3R and CMVneo/MC4R constructs.
# cAMP Assays. For these assays a cAMP assay kit (TRK 432, Amersham Corp.) was employed. Cells transfected with the receptors were grown to confluence in 12-well (2.4×1.7 cm) tissue culture plates. The cells were maintained in Dulbecco's modified Eagle's medium (GIBCO) containing 4.5 g/100 ml glucose, 10% fetal calf serum, 100 units/ml penicillin and streptomycin, 1 mM sodium pyruvate, and 1 mg/ml Geneticin. For assays, this medium was removed and cells were washed twice with Earle's balanced salt solution containing 10 mM Hepes (pH 7.4), 1 mM glutamine, 26.5 mM sodium bicarbonate, and 100 mg/ml bovine serum albumin. An aliquot (0.5 ml) of Earle's balanced salt solution was placed into each well along with 5 μl of 2×10^-2 M isobutylmethylxanthine. Varying concentrations of agonist were added, and the cells were incubated to 30 min at 37° C. Ice-cold 30% trichloracetic acid (500 μl/well) was added to stop the reaction and precipitate cellular protein. The cells were scraped and transferred to 16×150-mm glass tubes, then placed on ice for 30 min. The precipitate was then centrifuged for 10 min at 1,900×g, and the supernatant was ether extracted, lyophilized, and resuspended in 50 mM Tris, 2 mM EDTA (pH 7.5). cAMP content was then measured by a competitive binding assay according to the assay instructions.
# Receptor Gene Expression. The coding region of the MC3 receptor gene was subcloned into the eukaryotic expression vector CMVneo using a polymerase chain reaction (PCR) strategy as previously described. […] The insert was subsequently checked by dideoxynucleotide sequencing to insure that no errors were induced by the PCR. […]
# MC4 receptor [8] = molecular target: T2, MC4 receptor; assay: intracellular cAMP content in Hepa cells transfected with the MC4 receptor; type: cell-based
# MC1 receptor [9] = details: Mountjoy et al. 1992; cited from earlier work
# MC1 receptor [10] = molecular target: T5, MC1 receptor (Homo sapiens, UniProt Q01726); details: Chhajlani et al. 1992; cited from earlier work
# T5 construct: host or cells: Cos-7 cells transfected with α-MSH receptor cDNA
# T5 sequence (Q01726 whole entry): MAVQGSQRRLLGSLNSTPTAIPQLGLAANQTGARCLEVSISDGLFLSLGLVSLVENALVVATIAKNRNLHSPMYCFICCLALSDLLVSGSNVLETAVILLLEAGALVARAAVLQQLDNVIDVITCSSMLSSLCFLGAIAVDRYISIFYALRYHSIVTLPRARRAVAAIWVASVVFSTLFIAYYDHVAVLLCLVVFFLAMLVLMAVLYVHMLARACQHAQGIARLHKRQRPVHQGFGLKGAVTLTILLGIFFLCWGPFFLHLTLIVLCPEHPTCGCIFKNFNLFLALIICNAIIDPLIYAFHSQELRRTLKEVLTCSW
# MC4 receptor [11] = molecular target: T2, MC4 receptor; assay: cAMP generation in COS-1 cells transiently transfected with the MC4 receptor gene; type: cell-based
# Source text: as §1
# cAMP Assays. For these assays a cAMP assay kit (TRK 432, Amersham Corp.) was employed. […] The cells were maintained in Dulbecco's modified Eagle's medium (GIBCO) containing 4.5 g/100 ml glucose, 10% fetal calf serum, 100 units/ml penicillin and streptomycin, 1 mM sodium pyruvate, and 1 mg/ml Geneticin. […] The precipitate was then centrifuged for 10 min at 1,900×g, and the supernatant was ether extracted, lyophilized, and resuspended in 50 mM Tris, 2 mM EDTA (pH 7.5). cAMP content was then measured by a competitive binding assay according to the assay instructions.
# [12] = read-out: ED50, cAMP generation
# T1 sequence (P41968 whole entry): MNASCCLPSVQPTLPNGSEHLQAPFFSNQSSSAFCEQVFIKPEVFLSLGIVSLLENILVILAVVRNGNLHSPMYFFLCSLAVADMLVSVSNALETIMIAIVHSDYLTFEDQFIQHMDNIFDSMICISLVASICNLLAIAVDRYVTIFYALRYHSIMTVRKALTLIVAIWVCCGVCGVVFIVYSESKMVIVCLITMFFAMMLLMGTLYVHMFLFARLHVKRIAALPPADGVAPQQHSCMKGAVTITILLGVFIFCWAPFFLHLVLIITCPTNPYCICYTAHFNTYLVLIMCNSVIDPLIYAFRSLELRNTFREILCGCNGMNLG
molecule,measurement,setting,value
"O=S(=O)(NCCNCC=Cc1ccc(Br)cc1)c1cccc2cnccc12 [H-89, N-[2-(p-bromocinnamyl-amino)ethyl]-5-isoquinolinesulfonamide]",effect on α-MSH stimulated [3H]-IP production (in words),MC3 receptor [1],restoration of the higher levels of [^3 H]-IP products observed with 10^-11 M α-MSH
same,concentration of maximum effect on α-MSH stimulated [3H]-IP production,"MC3 receptor [1]; pretreatment, 10^-8 M α-MSH, Hepa cells, MC3 receptor",1 µM
same,effect on inhibitory phase of histamine [3H]-IP dose response curve (in words),[2],abolished by pretreatment with H-89
NC(=O)CC[C@@H]1NC(=O)[C@H](Cc2ccccc2)NC(=O)[C@H](Cc2ccc(O)cc2)NC(=O)[C@@H](N)CSSC[C@@H](C(=O)N2CCC[C@H]2C(=O)N[C@@H](CCCN=C(N)N)C(=O)NCC(N)=O)NC(=O)[C@H](CC(N)=O)NC1=O [vasopressin],effect on [Ca++]i (in words),[3],increase in [Ca^++ ]i upon stimulation of their endogenous vasopressin receptors
"CCCC(=O)Nc1ncnc2c1ncn2[C@@H]1O[C@@H]2COP(=O)(O)O[C@H]2[C@H]1OC(=O)CCC [dbcAMP, dibutryl cAMP]",effect on α-MSH stimulated [3H]-IP production (in words),MC3 receptor [1],dose dependently inhibited the level of [^3 H]-IP turnover in response to α-MSH
β-endorphin,cAMP response (in words),MC4 receptor [4],did not respond
same,cAMP response (in words),MC3 receptor [5],neither the MC1 receptor nor the MC3 receptor responded
same,cAMP response (in words),mMC5 receptor,"Neither were the other products of pro-opiomelanocortin processing, β-endorphin, met-enkephlin, or porcine β-lipotropin active"
same,cAMP response (in words),MC1 receptor [6],neither the MC1 receptor nor the MC3 receptor responded
"Rat ACTH: rat ACTH, which differs from human ACTH in two amino acids (SYSMEHFRWGKPVGKKRRPVKVYPNVAENESAEAFPLEF; Corticotropin; UniProt P01194 124-162, looked up)",cAMP response (in words),mMC5 receptor,produced the same results
[des-acetyl] α-MSH,cAMP response (in words),MC3 receptor [5],identical to those observed for ACTH and α-MSH
same,cAMP response (in words),MC3 receptor [7],no difference was observed
same,cAMP response (in words),MC1 receptor [6],identical to those observed for ACTH and α-MSH
same,cAMP response (in words),MC4 receptor [8],no difference was observed
CSCC[C@H](N)C(=O)N[C@@H](CCC(=O)O)C(=O)N[C@@H](Cc1c[nH]cn1)C(=O)N[C@@H](Cc1ccccc1)C(=O)N[C@@H](CCCNC(=N)N)C(=O)N[C@@H](Cc1c[nH]c2ccccc12)C(=O)NCC(=O)O [ACTH(4-10)],Emax,"MC4 receptor [8]; read-out: efficacy, % of the maximal response of ACTH (1-13)",30%
"Thr^1, Pro^11 y-MSH",cAMP response (in words),MC4 receptor [8],diminished both the potency and efficacy
"SYSMEHFRWGKPVGKKRRPVKVYPNGAEDESAEAFPLEF [ACTH, ACTH(1-39)] [listing 1 of 2 here]",EC50,"MC4 receptor [4]; read-out: half-maximal effect (EC50), intracellular cAMP",1 nM
same,EC50,MC3 receptor [5]; [12],~1 nM
same,EC50,MC1 receptor [6]; [12],~1 nM
"SYSMEHFRWGKPVGKKRRPVKVYPNGAEDESAEAFPLEF [ACTH, ACTH(1-39)] [listing 2 of 2 here]",cAMP response (in words),MC4 receptor [4],equal potency and efficacy
same,Emax,"MC3 receptor [1]; HepA, read-out: maximal stimulation of [3H]-IP production, % of basal unstimulated value",155%
same,inositol phospholipid turnover dose-response (in words),"MC3 receptor [1]; Hepa cells, MC3 receptor","At low doses (below 10^-11 M) there was a clear stimulatory effect, however, at higher doses, there was a dose dependent inhibitory effect"
same,cAMP production via the MC1 receptor (in words),MC1 receptor [9],less potent and less efficacious than α-MSH
same,cAMP response (in words),MC3 receptor [5],equal potency and efficacy
same,"affinity in displacing 125I-labeled [Nle4,D-Phe7]α-MSH (in words)",MC1 receptor [10],equal affinities
same,cAMP production relative to control unstimulated levels at maximal doses,MC3 receptor [7],exceeded 15 times the control
same,cAMP response (in words),MC3 receptor [7],stimulated cAMP production
same,cAMP response (in words),MC1 receptor [6],equal potency and efficacy
same,cAMP response (in words),MC4 receptor [11],marked increase in intracellular cAMP content
[Met]enkephalin,cAMP response (in words),MC4 receptor [4],did not respond
same,cAMP response (in words),MC3 receptor [5],neither the MC1 receptor nor the MC3 receptor responded
same,cAMP response (in words),mMC5 receptor,"Neither were the other products of pro-opiomelanocortin processing, β-endorphin, met-enkephlin, or porcine β-lipotropin active"
same,cAMP response (in words),MC1 receptor [6],neither the MC1 receptor nor the MC3 receptor responded
CSCC[C@H](NC(=O)[C@@H](NC(=O)[C@@H](N)Cc1ccc(O)cc1)C(C)C)C(=O)NCC(=O)N[C@@H](Cc1c[nH]cn1)C(=O)N[C@@H](Cc1ccccc1)C(=O)N[C@@H](CCCNC(=N)N)C(=O)N[C@@H](Cc1c[nH]c2ccccc12)C(=O)N[C@@H](CC(=O)O)C(=O)N[C@@H](CCCNC(=N)N)C(=O)N1CCC[C@H]1C(=O)NCC(=O)O [Pro^11 y-MSH],"efficacy, intracellular cAMP",MC4 receptor [8]; α-MSH as reference for maximum response,75%
same,EC50,MC4 receptor [8]; α-MSH dose response curve as reference for maximum response,100 nM
B1,cAMP response (in words),MC4 receptor [4],small increase in cAMP
same,cAMP response (in words),mMC5 receptor,"Neither were the other products of pro-opiomelanocortin processing, β-endorphin, met-enkephlin, or porcine β-lipotropin active"

# — patent publication US6117975A, “Melanocortin receptor polypeptides MC-3, MC-4, and MC-5” (The Regents of the University of Michigan, priority 1996, dated 2000)
